Assay: Human HepG2 cell viability assay in 384 well format
Format: toxicity, cell-based
Parameters: dose 125 nL, time 70.5 hour; concentration not given beside the values
Conditions: HepG2 cells, read-out: Inhibition

SMILES	cytotoxicity at 70.5 h [%]
Cc1nc(C)c(Cc2nc(C3CC3)n[nH]2)c(=O)[nH]1	-3.16
Cc1ncsc1C(=O)N1CCCN(Cc2cscn2)CC1	-12.1
CCCc1ncc(CN(CCOC)Cc2cccs2)cn1	-1.12
O=C1NCCCCC1NCc1csc(-c2ccc(F)cc2)n1 (stereo unspecified)	6.14
Cc1nc(CNC(=O)N(C)Cc2cnn(C)c2)cs1	9.64
CCN1CCCC(c2cc(Nc3cnccn3)nc(C)n2)C1 (stereo unspecified)	-6.21
COc1ccc(CN2CCCC2c2cccc(F)c2)c(OC)c1OC (stereo unspecified)	-6.93
CCC(=O)N1CC[C@H]2C(=O)N(Cc3ccc(OC)cc3)CCO[C@H]2C1	34.1
c1cncc(CC2CN(c3cccnc3)CCO2)c1 (stereo unspecified)	-6.99
COc1cc(CCC(=O)N2CCC(c3cc4ncccc4[nH]3)CC2)on1	22
Cc1cn2c(n1)CCC(NC(=O)c1ccc(CS(C)(=O)=O)o1)C2 (stereo unspecified)	-2.86
O=C(Nc1nnc[nH]1)C(c1cccc(F)c1)N1CCOCC1 (stereo unspecified)	-1.33
O=C(c1[nH]nc(C2CC2)c1Cl)N1CCN(S(=O)(=O)c2ccccc2)CC1	18.5
O=C(NC1CC1)c1nc(Cn2c(C(F)F)nc3ccccc32)no1	-7.88
CC(C)n1cnc2c(N3CCCC3)nc(C3CCNCC3)cc21	5.44
CNC(=O)CN1CCCC12CCN(C(=O)c1ccc(F)cc1)CC2	-11
O=C(NC[C@H]1OC[C@@H]2CCN(c3ccccn3)C[C@@H]21)c1ccco1	-1.04
CCNC(=O)C1CCN(c2cc(-c3ccccc3F)nc3ccnn23)C1 (stereo unspecified)	14.5
Cc1cc(C(=O)N2C[C@H](CO)C[C@H](CN3CCOCC3)C2)nc(C)n1	-7.67

SMILES	cytotoxicity at 70.5 h [%]
CCCS(=O)(=O)N(C)C(=O)CCc1ccccc1	-8.46
CC(=O)N1N=C(c2ccccc2)OC1C(=O)NCCc1ccc(Cl)cc1 (stereo unspecified)	8.17
CC(C)c1nnc(CN(C)C(c2ccc(F)cc2)c2cccnc2)o1 (stereo unspecified)	-2.85
O=C(c1ccccn1)N1C[C@@H]2OCC(=O)N(CC3CCCCC3)[C@@H]2C1	-6.75
Cn1cc(CN2CCCN(C(=O)c3sccc3C#N)CC2)cn1	-2.13
O=C1CN(C(=O)c2nnn(-c3ccc(C(F)(F)F)cc3)n2)CCN1	-14.4
c1ccc2c(c1)OCCCC2NCc1nnc2n1CCCCC2 (stereo unspecified)	-2.04
CCn1cncc1CNc1ccc(-c2nc(CC(C)C)no2)cn1	2.85
CO[C@@H]1CCN(C2CCOCC2)C[C@@H]1Cc1ccccc1	-11.8
CCCc1nc(NCCCn2cccn2)c2c(n1)c(C)nn2CC	-4.19
CC(C)NC(=O)c1cc2c([nH]c1=O)CC(c1cccs1)CC2=O (stereo unspecified)	6.88
Cc1csc(CN2CCC[C@]3(C[C@@H](Oc4ccccn4)CO3)C2)n1	1.82
Cc1noc(C)c1C(=O)NCc1cc[nH]n1	11.4
N#Cc1ccc(OCCN2CCc3c(ncn3C3CC3)C2)cc1	8.16
CNc1cccc(CC2COCCN(C(=O)c3cncs3)C2)n1 (stereo unspecified)	1.43
COCCC1COC2(CCN(C(=O)c3ccsc3)CC2)C1 (stereo unspecified)	-12.7
Cn1cc(CN2CC[C@H]3O[C@H](C(=O)NCc4ccco4)CC[C@H]32)cn1	-12.4
Cc1nn(C)c2nc(NCCN3CCCC(C(N)=O)C3)sc12 (stereo unspecified)	-13.4
CCO[C@@H]1CC[C@H]2[C@H]1OCCN2Cc1ccoc1	-1.39

SMILES	cytotoxicity at 70.5 h [%]
COc1ccc2c(c1)CCN(CCC(=O)NC1CCCCC1)CC2	-9.14
CN1CCO[C@@H]2CN(C(=O)c3ccc4[nH]ccc4c3)CC[C@@H]2C1	-10.4
COC(=O)CCC(=O)NCc1cccnc1N1CCc2ccccc2C1	3.31
CCCc1noc(C(C)S(=O)(=O)Cc2nc(C3CC3)no2)n1 (stereo unspecified)	-2.49
CN(Cc1ccccc1)CC(C)(C)NC(=O)c1ccon1	-4.18
CCOC(=O)CC(C)Nc1nc(C2CCCC2)nc2c1cnn2C (stereo unspecified)	-12.8
Cc1cnc(CN(C)C2CCN(CCCc3ccccc3)C2)o1 (stereo unspecified)	10
COc1cc2c(cc1OC)S(=O)(=O)N(Cc1ccccc1C)C2=O	23.7
Cc1nc(C(C)(C)NC(=O)Nc2ccccc2)no1	1.88
Cc1ccc(C2CCCCCN2Cc2cn(C)nc2C)s1 (stereo unspecified)	-19.6
Cc1ncc(C(=O)NCCNC(=O)c2ccccc2)s1	-6.97
Cc1c(C2CCCN(C(=O)c3ccn(C)n3)C2)n2c(nc1=O)CCC2 (stereo unspecified)	-7.35
Cc1nc(C(=O)N2CCN(c3ccc(Cl)c(Cl)c3)CC2)cs1	-3.76
CN(C)C(=O)CN1C[C@@H]2CC[C@H](C1)N(Cc1ccccc1C#N)C2	-11
CS(=O)(=O)NC1CCCN(C(=O)NCc2cccnc2)C1 (stereo unspecified)	-0.126
CCCN(CCC)c1ncc(S(=O)(=O)c2ccccc2)c(N)n1	-15.1
Cc1nccn1-c1cc(CNC(=O)CCS(=O)(=O)C2CCCC2)ccn1	10.7
Cc1noc(C)c1CN1CCO[C@H]2CN(C3CCOCC3)C[C@H]21	21.3
